Laboratory results from patent publication US20230085307A1, “PYRIDAZINONE COMPOUND AND HERBICIDE” (NISSAN CHEMICAL CORPORATION, priority 2019, published 2023).

test system: Chinese sprangletop; assay: Test Example 3: herbicidal effect by foliage application, Wagner pot (Table 18, symbol D); format: in vivo, chinese sprangletop (Leptochloa chinensis); details: 320 g/ha
Outline: (§1)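 Plants were sown in alluvial soil held under 0.1–0.5 cm standing water and grown 14 days in a greenhouse at 25–30 °C. An emulsifiable formulation, water-diluted to the set dose, was then sprayed onto the foliage, and effects were scored three weeks later using previously defined criteria.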

Row | SMILES | herbicidal effect on Chinese sprangletop (D)
1 | CCCC(=O)Oc1c(C)nn(C)c(=O)c1-c1c(-c2ccccc2OCc2ccccc2)sc2c(Cl)cccc12 [4-085] | 0 (Herbicidal rate of 5% or less (almost no effect))
2 | CCSc1ccccc1-c1sc2c(Cl)cccc2c1-c1c(O)c(C)nn(C)c1=O [4-090] | 3 (Herbicidal rate of 40% or more and less than 70%)
3 | CCCC(=O)Oc1c(C)nn(C)c(=O)c1-c1c(-c2cccc(SCC)c2)sc2c(Cl)cccc12 [4-093] | 4 (Herbicidal rate of 70% or more and less than 90%)

test system: rice flat sedge; assay: Test Example 3: herbicidal effect by foliage application, Wagner pot (Table 18, symbol E); format: in vivo, rice flat sedge (Cyperus iria); details: 320 g/ha
Outline: as §1

Row | SMILES | herbicidal effect on rice flat sedge (E)
4 | CCCC(=O)Oc1c(C)nn(C)c(=O)c1-c1c(-c2ccccc2OCc2ccccc2)sc2c(Cl)cccc12 [4-085] | 2 (Herbicidal rate of 20% or more and less than 40%)
5 | CCSc1ccccc1-c1sc2c(Cl)cccc2c1-c1c(O)c(C)nn(C)c1=O [4-090] | 2 (Herbicidal rate of 20% or more and less than 40%)
6 | CCCC(=O)Oc1c(C)nn(C)c(=O)c1-c1c(-c2cccc(SCC)c2)sc2c(Cl)cccc12 [4-093] | 4 (Herbicidal rate of 70% or more and less than 90%)

test system: redroot pigweed; assay: Test Example 5: herbicidal effect by foliage application, plastic box (Table 20, symbol N); format: in vivo, redroot pigweed (Amaranthus retroflexus); details: amount of applied herbicide 320 g/ha; foliage application after 14-day growth; evaluated three weeks after application
Outline: (§2)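 Post-emergence foliar test in sterilized diluvial soil. Compound applied as water-diluted emulsion at a predetermined rate to 14-day-old plants; evaluation at three weeks.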

Row | SMILES | Herbicidal effect by foliage application, N: redroot pigweed
7 | CCCC(=O)Oc1c(C)nn(C)c(=O)c1-c1c(-c2ccccc2OCc2ccccc2)sc2c(Cl)cccc12 [4-085] | 0 (Herbicidal rate of 5% or less (almost no effect))
8 | CCSc1ccccc1-c1sc2c(Cl)cccc2c1-c1c(O)c(C)nn(C)c1=O [4-090] | 3 (Herbicidal rate of 40% or more and less than 70%)
9 | CCCC(=O)Oc1c(C)nn(C)c(=O)c1-c1c(-c2cccc(SCC)c2)sc2c(Cl)cccc12 [4-093] | 3 (Herbicidal rate of 40% or more and less than 70%)

test system: green foxtail; assay: Test Example 5: herbicidal effect by foliage application, plastic box (Table 20, symbol G); format: in vivo, green foxtail (Setaria viridis); details: amount of applied herbicide 320 g/ha; foliage application after 14-day growth; evaluated three weeks after application
Outline: as §2

Row | SMILES | Herbicidal effect by foliage application, G: green foxtail
10 | CCCC(=O)Oc1c(C)nn(C)c(=O)c1-c1c(-c2ccccc2OCc2ccccc2)sc2c(Cl)cccc12 [4-085] | 0 (Herbicidal rate of 5% or less (almost no effect))
11 | CCSc1ccccc1-c1sc2c(Cl)cccc2c1-c1c(O)c(C)nn(C)c1=O [4-090] | 3 (Herbicidal rate of 40% or more and less than 70%)
12 | CCCC(=O)Oc1c(C)nn(C)c(=O)c1-c1c(-c2cccc(SCC)c2)sc2c(Cl)cccc12 [4-093] | 2 (Herbicidal rate of 20% or more and less than 40%)

test system: barnyard grass; assay: Test Example 3: herbicidal effect by foliage application, Wagner pot (Table 18, symbol H); format: in vivo, barnyard grass (Echinochloa crus-galli); details: 320 g/ha
Outline: as §1

Row | SMILES | herbicidal effect on barnyard grass (H)
13 | CCCC(=O)Oc1c(C)nn(C)c(=O)c1-c1c(-c2ccccc2OCc2ccccc2)sc2c(Cl)cccc12 [4-085] | 2 (Herbicidal rate of 20% or more and less than 40%)
14 | CCSc1ccccc1-c1sc2c(Cl)cccc2c1-c1c(O)c(C)nn(C)c1=O [4-090] | 5 (Herbicidal rate of 90% or more (almost completely withered))
15 | CCCC(=O)Oc1c(C)nn(C)c(=O)c1-c1c(-c2cccc(SCC)c2)sc2c(Cl)cccc12 [4-093] | 5 (Herbicidal rate of 90% or more (almost completely withered))

test system: Italian ryegrass; assay: Test Example 5: herbicidal effect by foliage application, plastic box (Table 20, symbol K); format: in vivo, Italian ryegrass (Lolium multiflorum); details: amount of applied herbicide 320 g/ha; foliage application after 14-day growth; evaluated three weeks after application
Outline: as §2

Row | SMILES | Herbicidal effect by foliage application, K: Italian ryegrass
16 | CCCC(=O)Oc1c(C)nn(C)c(=O)c1-c1c(-c2ccccc2OCc2ccccc2)sc2c(Cl)cccc12 [4-085] | 0 (Herbicidal rate of 5% or less (almost no effect))
17 | CCSc1ccccc1-c1sc2c(Cl)cccc2c1-c1c(O)c(C)nn(C)c1=O [4-090] | 0 (Herbicidal rate of 5% or less (almost no effect))
18 | CCCC(=O)Oc1c(C)nn(C)c(=O)c1-c1c(-c2cccc(SCC)c2)sc2c(Cl)cccc12 [4-093] | 0 (Herbicidal rate of 5% or less (almost no effect))

test system: velvetleaf; assay: Test Example 5: herbicidal effect by foliage application, plastic box (Table 20, symbol M); format: in vivo, velvetleaf (Abutilon theophrasti); details: amount of applied herbicide 320 g/ha; foliage application after 14-day growth; evaluated three weeks after application
Outline: as §2

Row | SMILES | Herbicidal effect by foliage application, M: velvetleaf
19 | CCCC(=O)Oc1c(C)nn(C)c(=O)c1-c1c(-c2ccccc2OCc2ccccc2)sc2c(Cl)cccc12 [4-085] | 0 (Herbicidal rate of 5% or less (almost no effect))
20 | CCSc1ccccc1-c1sc2c(Cl)cccc2c1-c1c(O)c(C)nn(C)c1=O [4-090] | 0 (Herbicidal rate of 5% or less (almost no effect))
21 | CCCC(=O)Oc1c(C)nn(C)c(=O)c1-c1c(-c2cccc(SCC)c2)sc2c(Cl)cccc12 [4-093] | 3 (Herbicidal rate of 40% or more and less than 70%)

test system: lambsquarters; assay: Test Example 5: herbicidal effect by foliage application, plastic box (Table 20, symbol O); format: in vivo, lambsquarters (Chenopodium album); details: amount of applied herbicide 320 g/ha; foliage application after 14-day growth; evaluated three weeks after application
Outline: as §2

Row | SMILES | Herbicidal effect by foliage application, O: lambsquarters
22 | CCCC(=O)Oc1c(C)nn(C)c(=O)c1-c1c(-c2ccccc2OCc2ccccc2)sc2c(Cl)cccc12 [4-085] | 0 (Herbicidal rate of 5% or less (almost no effect))
23 | CCSc1ccccc1-c1sc2c(Cl)cccc2c1-c1c(O)c(C)nn(C)c1=O [4-090] | 0 (Herbicidal rate of 5% or less (almost no effect))
24 | CCCC(=O)Oc1c(C)nn(C)c(=O)c1-c1c(-c2cccc(SCC)c2)sc2c(Cl)cccc12 [4-093] | 1 (Herbicidal rate of 5% or more and less than 20%)

test system: blackgrass; assay: Test Example 5: herbicidal effect by foliage application, plastic box (Table 20, symbol J); format: in vivo, blackgrass (Alopecurus myosuroides); details: amount of applied herbicide 320 g/ha; foliage application after 14-day growth; evaluated three weeks after application
Outline: as §2

Row | SMILES | Herbicidal effect by foliage application, J: blackgrass
25 | CCCC(=O)Oc1c(C)nn(C)c(=O)c1-c1c(-c2ccccc2OCc2ccccc2)sc2c(Cl)cccc12 [4-085] | 0 (Herbicidal rate of 5% or less (almost no effect))
26 | CCSc1ccccc1-c1sc2c(Cl)cccc2c1-c1c(O)c(C)nn(C)c1=O [4-090] | 0 (Herbicidal rate of 5% or less (almost no effect))
27 | CCCC(=O)Oc1c(C)nn(C)c(=O)c1-c1c(-c2cccc(SCC)c2)sc2c(Cl)cccc12 [4-093] | 0 (Herbicidal rate of 5% or less (almost no effect))

test system: persian speedwell; assay: Test Example 5: herbicidal effect by foliage application, plastic box (Table 20, symbol R); format: in vivo, Persian speedwell (Veronica persica); details: amount of applied herbicide 320 g/ha; foliage application after 14-day growth; evaluated three weeks after application
Outline: as §2

Row | SMILES | Herbicidal effect by foliage application, R: persian speedwell
28 | CCCC(=O)Oc1c(C)nn(C)c(=O)c1-c1c(-c2ccccc2OCc2ccccc2)sc2c(Cl)cccc12 [4-085] | 2 (Herbicidal rate of 20% or more and less than 40%)
29 | CCSc1ccccc1-c1sc2c(Cl)cccc2c1-c1c(O)c(C)nn(C)c1=O [4-090] | 1 (Herbicidal rate of 5% or more and less than 20%)
30 | CCCC(=O)Oc1c(C)nn(C)c(=O)c1-c1c(-c2cccc(SCC)c2)sc2c(Cl)cccc12 [4-093] | 3 (Herbicidal rate of 40% or more and less than 70%)

test system: wild oat; assay: Test Example 5: herbicidal effect by foliage application, plastic box (Table 20, symbol I); format: in vivo, wild oat (Avena fatua); details: amount of applied herbicide 320 g/ha; foliage application after 14-day growth; evaluated three weeks after application
Outline: as §2

Row | SMILES | Herbicidal effect by foliage application, I: wild oat
31 | CCCC(=O)Oc1c(C)nn(C)c(=O)c1-c1c(-c2ccccc2OCc2ccccc2)sc2c(Cl)cccc12 [4-085] | 0 (Herbicidal rate of 5% or less (almost no effect))
32 | CCSc1ccccc1-c1sc2c(Cl)cccc2c1-c1c(O)c(C)nn(C)c1=O [4-090] | 0 (Herbicidal rate of 5% or less (almost no effect))
33 | CCCC(=O)Oc1c(C)nn(C)c(=O)c1-c1c(-c2cccc(SCC)c2)sc2c(Cl)cccc12 [4-093] | 1 (Herbicidal rate of 5% or more and less than 20%)

test system: barnyard grass; assay: Test Example 5: herbicidal effect by foliage application, plastic box (Table 20, symbol H); format: in vivo, barnyard grass (Echinochloa crus-galli); details: amount of applied herbicide 320 g/ha; foliage application after 14-day growth; evaluated three weeks after application
Outline: as §2

Row | SMILES | Herbicidal effect by foliage application, H: barnyard grass
34 | CCCC(=O)Oc1c(C)nn(C)c(=O)c1-c1c(-c2ccccc2OCc2ccccc2)sc2c(Cl)cccc12 [4-085] | 3 (Herbicidal rate of 40% or more and less than 70%)
35 | CCSc1ccccc1-c1sc2c(Cl)cccc2c1-c1c(O)c(C)nn(C)c1=O [4-090] | 3 (Herbicidal rate of 40% or more and less than 70%)
36 | CCCC(=O)Oc1c(C)nn(C)c(=O)c1-c1c(-c2cccc(SCC)c2)sc2c(Cl)cccc12 [4-093] | 0 (Herbicidal rate of 5% or less (almost no effect))

test system: windgrass; assay: Test Example 5: herbicidal effect by foliage application, plastic box (Table 20, symbol L); format: in vivo, windgrass (Apera spica-venti); details: amount of applied herbicide 320 g/ha; foliage application after 14-day growth; evaluated three weeks after application
Outline: as §2

Row | SMILES | Herbicidal effect by foliage application, L: windgrass
37 | CCCC(=O)Oc1c(C)nn(C)c(=O)c1-c1c(-c2ccccc2OCc2ccccc2)sc2c(Cl)cccc12 [4-085] | 0 (Herbicidal rate of 5% or less (almost no effect))
38 | CCSc1ccccc1-c1sc2c(Cl)cccc2c1-c1c(O)c(C)nn(C)c1=O [4-090] | 0 (Herbicidal rate of 5% or less (almost no effect))
39 | CCCC(=O)Oc1c(C)nn(C)c(=O)c1-c1c(-c2cccc(SCC)c2)sc2c(Cl)cccc12 [4-093] | 0 (Herbicidal rate of 5% or less (almost no effect))

test system: southern crabgrass; assay: Test Example 5: herbicidal effect by foliage application, plastic box (Table 20, symbol F); format: in vivo, southern crabgrass (Digitaria ciliaris); details: amount of applied herbicide 320 g/ha; foliage application after 14-day growth; evaluated three weeks after application
Outline: as §2

Row | SMILES | Herbicidal effect by foliage application, F: southern crabgrass
40 | CCCC(=O)Oc1c(C)nn(C)c(=O)c1-c1c(-c2ccccc2OCc2ccccc2)sc2c(Cl)cccc12 [4-085] | 0 (Herbicidal rate of 5% or less (almost no effect))
41 | CCSc1ccccc1-c1sc2c(Cl)cccc2c1-c1c(O)c(C)nn(C)c1=O [4-090] | 4 (Herbicidal rate of 70% or more and less than 90%)
42 | CCCC(=O)Oc1c(C)nn(C)c(=O)c1-c1c(-c2cccc(SCC)c2)sc2c(Cl)cccc12 [4-093] | 0 (Herbicidal rate of 5% or less (almost no effect))

test system: chickweed; assay: Test Example 5: herbicidal effect by foliage application, plastic box (Table 20, symbol P); format: in vivo, common chickweed (Stellaria media); details: amount of applied herbicide 320 g/ha; foliage application after 14-day growth; evaluated three weeks after application
Outline: as §2

Row | SMILES | Herbicidal effect by foliage application, P: chickweed
43 | CCCC(=O)Oc1c(C)nn(C)c(=O)c1-c1c(-c2ccccc2OCc2ccccc2)sc2c(Cl)cccc12 [4-085] | 4 (Herbicidal rate of 70% or more and less than 90%)
44 | CCSc1ccccc1-c1sc2c(Cl)cccc2c1-c1c(O)c(C)nn(C)c1=O [4-090] | 0 (Herbicidal rate of 5% or less (almost no effect))
45 | CCCC(=O)Oc1c(C)nn(C)c(=O)c1-c1c(-c2cccc(SCC)c2)sc2c(Cl)cccc12 [4-093] | 1 (Herbicidal rate of 5% or more and less than 20%)
